tested on: DOHH2 cells; assay: Cell proliferation assay in DOHH2 cells (MTS); assay type: cell-based; details: 120 h
Description: To investigate whether a compound is able to inhibit the activity of BTK in cells, a mechanism-based assay using DOHH2 (DSMZ catalog #: ACC47) cell was developed. In this assay, inhibition of BTK was detected by the inhibition of DOHH2 cells proliferation. Cells were collected and plated onto 96-well plates at the optimized cell density (5000 cells/well). Plates were incubated at 37° C., with 5% CO2 for 4 h. Compounds were serially diluted and added to the plates with the final concentrations as 10000, 3333.3, 1111.1, 370.4, 123.5, 41.2, 13.7, 4.6 and 1.5 nM. Plates were incubated at 37° C., with 5% CO2 for 120 h. An aliquot of 20 μL MTS/100 μL medium mixture solution were added to each well and the plates were incubated for exactly 2 h. The reaction was stopped by adding 25 μL 10% SDS to each well. The absorbance was measured by a microplate reader at 490 nm and 650 nm (reference wavelength). IC50 was calculated using GraphPad Prism 5.0.
Select compounds prepared as described above were assayed according to the biological procedures described herein.

First: COc1cnc2[nH]cc(C(=O)c3ccc(Oc4ccccc4F)cc3C)c2c1N[C@@]12CO[C@H](CO)C1C2 (single isomer, unassigned) [Example 167]
Second: CCOc1cnc2[nH]cc(C(=O)c3ccc(Oc4ccccc4)cc3F)c2c1N[C@@]12CO[C@H](CO)C1C2 (single isomer, unassigned) [Example 182]
The IC50 of the first is 1.7-fold lower: 0.018 µM for the first, 0.031 µM for the second.

same assay, conditions: Homo sapiens, DOHH-2, 120 h

Compared with COc1cnc2[nH]cc(C(=O)c3ccc(Oc4ccccc4F)cc3F)c2c1N[C@@H]1CC[C@@H](CNS(C)(=O)=O)OC1 [Example 161, N-(((2S,5R)-5-((3-(2-fluoro-4-(2-fluorophenoxy)benzoyl)-5-methoxy-1H-pyrrolo[2,3-b]pyridin-4-yl)amino)tetrahydro-2H-pyran-2-yl)methyl)methanesulfonamide], O=C(c1ccc(Oc2ccccc2F)cc1Cl)c1c[nH]c2ncc(F)c(N[C@@H]3CC[C@@H](CO)OC3)c12 [Example 125, (2-chloro-4-(2-fluorophenoxy)phenyl)(5-fluoro-4-(((3R,6S)-6-(hydroxymethyl)tetrahydro-2H-pyran-3-yl)amino)-1H-pyrrolo[2,3-b]pyridin-3-yl)methanone] is 14-fold lower in IC50: 0.014 µM for the first, 0.001 µM for the second.

First: N#Cc1cnc2[nH]cc(C(=O)c3ccc(Oc4ccccc4F)cc3Cl)c2c1N[C@@H]1CC[C@@H](CO)OC1 [Example 32, 3-(2-chloro-4-(2-fluorophenoxy)benzoyl)-4-(((3R,6S)-6-(hydroxymethyl)tetrahydro-2H-pyran-3-yl)amino)-1H-pyrrolo[2,3-b]pyridine-5-carbonitrile]
Second: O=C(c1ccc(Oc2ccccc2F)cc1Cl)c1c[nH]c2ncc(Cl)c(N[C@@H]3CC[C@@H](CO)OC3)c12 [Example 100, (5-chloro-4-(((3R,6S)-6-(hydroxymethyl)tetrahydro-2H-pyran-3-yl)amino)-1H-pyrrolo[2,3-b]pyridin-3-yl)(2-chloro-4-(2-fluorophenoxy)phenyl)methanone]
The IC50 of the first is 4.5-fold lower: 0.015 µM for the first, 0.067 µM for the second. The first is the more potent here.

First: N#Cc1cnc2[nH]cc(C(=O)c3ccc(Oc4ccccc4)c(Cl)c3Cl)c2c1N[C@@H]1CC[C@@H](CO)OC1 [Example 37, 3-(2,3-dichloro-4-phenoxybenzoyl)-4-(((3R,6S)-6-(hydroxymethyl)tetrahydro-2H-pyran-3-yl)amino)-1H-pyrrolo[2,3-b]pyridine-5-carbonitrile]
Second: N#Cc1cnc2[nH]cc(C(=O)c3ccc(Oc4ccccc4)cc3Cl)c2c1N[C@@H]1CC[C@@H](CO)OC1 [Example 7, 3-(2-chloro-4-phenoxybenzoyl)-4-(((3R,6S)-6-(hydroxymethyl)tetrahydro-2H-pyran-3-yl)amino)-1H-pyrrolo[2,3-b]pyridine-5-carbonitrile]
The IC50 of the first is 1.7-fold lower: 0.048 µM for the first, 0.083 µM for the second.

First: O=C(c1ccc(Oc2ccccc2F)cc1F)c1c[nH]c2nccc(N[C@@H]3CC[C@@H](CO)OC3)c12 [Example 102, (2-fluoro-4-(2-fluorophenoxy)phenyl)(4-(((3R,6S)-6-(hydroxymethyl)tetrahydro-2H-pyran-3-yl)amino)-1H-pyrrolo[2,3-b]pyridin-3-yl)methanone]
Second: O=C(c1ccc(Oc2ccccc2F)cc1Cl)c1c[nH]c2nccc(N[C@@H]3CC[C@@H](CO)OC3)c12 [Example 30, (2-chloro-4-(2-fluorophenoxy)phenyl)(4-(((3R,6S)-6-(hydroxymethyl)tetrahydro-2H-pyran-3-yl)amino)-1H-pyrrolo[2,3-b]pyridin-3-yl)methanone]
The IC50 of the first is 3-fold lower: 0.007 µM for the first, 0.021 µM for the second.

Going from Cc1cc(Oc2ccccc2F)ncc1C(=O)c1c[nH]c2ncc(F)c(N[C@@H]3CC[C@@H](CO)OC3)c12 [Example 117, (5-fluoro-4-(((3R,6S)-6-(hydroxymethyl)tetrahydro-2H-pyran-3-yl)amino)-1H-pyrrolo[2,3-b]pyridin-3-yl)(6-(2-fluorophenoxy)-4-methylpyridin-3-yl)methanone] to COc1cnc2[nH]cc(C(=O)c3ccc(Oc4c(F)cccc4F)cc3C)c2c1N[C@@H]1CC[C@@H](CO)OC1 [Example 188, (4-(2,6-difluorophenoxy)-2-methylphenyl)(4-(((3R,6S)-6-(hydroxymethyl)tetrahydro-2H-pyran-3-yl)amino)-5-methoxy-1H-pyrrolo[2,3-b]pyridin-3-yl)methanone], the IC50 falls from 0.069 µM to 0.004 µM (17-fold). The second is the more potent here.

Compared with COc1cnc2[nH]cc(C(=O)c3c(F)cc(Oc4ccccn4)cc3F)c2c1N[C@@H]1CC[C@@H](CO)OC1 [Example 198, (2,6-difluoro-4-(pyridin-2-yloxy)phenyl)(4-(((3R,6S)-6-(hydroxymethyl)tetrahydro-2H-pyran-3-yl)amino)-5-methoxy-1H-pyrrolo[2,3-b]pyridin-3-yl)methanone], O=C(c1c(F)cc(Oc2ccccc2)cc1F)c1c[nH]c2nccc(N[C@@H]3CC[C@@H](CO)OC3)c12 [Example 44, (2,6-difluoro-4-phenoxyphenyl)(4-(((3R,6S)-6-(hydroxymethyl)tetrahydro-2H-pyran-3-yl)amino)-1H-pyrrolo[2,3-b]pyridin-3-yl)methanone] is 7.4-fold lower in IC50: 0.052 µM for the first, 0.007 µM for the second. The second is the more potent here.

Compared with COc1cc(Oc2ccccc2F)cnc1C(=O)c1c[nH]c2nccc(N[C@@H]3CC[C@@H](CO)OC3)c12 [Example 110, (5-(2-fluorophenoxy)-3-methoxypyridin-2-yl)(4-(((3R,6S)-6-(hydroxymethyl)tetrahydro-2H-pyran-3-yl)amino)-1H-pyrrolo[2,3-b]pyridin-3-yl)methanone], COc1cnc2[nH]cc(C(=O)c3ccc(Oc4ccccc4F)cc3)c2c1N[C@@H]1CC[C@@H](CO)OC1 [Example 73, (4-(2-fluorophenoxy)phenyl)(4-(((3R,6S)-6-(hydroxymethyl)tetrahydro-2H-pyran-3-yl)amino)-5-methoxy-1H-pyrrolo[2,3-b]pyridin-3-yl)methanone] is 95-fold lower in IC50: 0.095 µM for the first, 0.001 µM for the second.

Going from Cc1cc(Oc2cccc(F)c2)ccc1C(=O)c1c[nH]c2ncc(C#N)c(N[C@@H]3CC[C@@H](CO)OC3)c12 [Example 49, 3-(4-(3-fluorophenoxy)-2-methylbenzoyl)-4-(((3R,6S)-6-(hydroxymethyl)tetrahydro-2H-pyran-3-yl)amino)-1H-pyrrolo[2,3-b]pyridine-5-carbonitrile] to Cc1cc(Oc2ccccc2)ccc1C(=O)c1c[nH]c2ncc(C#N)c(N[C@@H]3CC[C@@H](CO)OC3)c12 [Example 11, 4-(((3R,6S)-6-(hydroxymethyl)tetrahydro-2H-pyran-3-yl)amino)-3-(2-methyl-4-phenoxybenzoyl)-1H-pyrrolo[2,3-b]pyridine-5-carbonitrile], the IC50 falls from 0.1 µM to 0.06 µM (1.7-fold).

Going from O=C(c1ccc(Oc2c(F)cccc2F)cc1Cl)c1c[nH]c2ncc(Cl)c(N[C@@H]3CC[C@@H](CO)OC3)c12 [Example 189, (5-chloro-4-(((3R,6S)-6-(hydroxymethyl)tetrahydro-2H-pyran-3-yl)amino)-1H-pyrrolo[2,3-b]pyridin-3-yl)(2-chloro-4-(2,6-difluorophenoxy)phenyl)methanone] to COc1cnc2[nH]cc(C(=O)c3ccc(Oc4ccccc4)cc3C)c2c1N[C@@H]1CC[C@@H](CO)OC1 [Example 134, (4-(((3R,6S)-6-(hydroxymethyl)tetrahydro-2H-pyran-3-yl)amino)-5-methoxy-1H-pyrrolo[2,3-b]pyridin-3-yl)(2-methyl-4-phenoxyphenyl)methanone], the IC50 falls from 0.032 µM to 0.001 µM (32-fold).

O=C(c1ccc(Oc2ccccc2)cc1)c1c[nH]c2nccc(N[C@@H]3CC[C@@H](CO)OC3)c12 [Example 28, (4-(((3R,6S)-6-(hydroxymethyl)tetrahydro-2H-pyran-3-yl)amino)-1H-pyrrolo[2,3-b]pyridin-3-yl)(4-phenoxyphenyl)methanone] gave an IC50 of 0.032 µM.
